Data set [1] deals with human cells Kasumi. As to the kind of experiment: MTT cytotoxicity assay, Kasumi. It counts as cell-based. The settings on record: 24 h. From the text:
(§1) The two human acute lymphoblastic leukemia cells K562 and Kasumi, two human breast adenocarcinoma cells MCF7 and MDA-MB-231, human hepatoma cell HepG-2, human lung adenocarcinoma cell A549, human gastric cancer cell SGC-7901, human colon cancer cell HCT-116, human ovarian cancer cell line SKOV3, or human lung epithelial normal cell 2B were obtained from Beyotime Biotechnology and utilized to test the cytotoxicity of compounds by MTT assays as previous study. The anti-inflammatory effect of the compounds was detected by the influence on the increase in the level of nitric oxide caused by lipopolysaccharide (LPS) based on the classic Griess method. RAW 264.7 cells (Shanghai Institutes for Biological Science) were seeded in 96-well plates and incubated for 24 h. Then, cells were treated with compounds 29, 29a, 31, and 31a (0-80 μM) for 30 min, followed by co-treatment with LPS ([…]) for another 24 h. The Nitric Oxide assay kit with Griess reagents (Beyotime, Lot: S0021, Shanghai, China) was used to examine cellular supernatant nitrite accumulation, which represents cellular NO levels. The OD value of 540 nm absorbance was detected with a microplate reader. Their authentication in the laboratory was performed regularly based on morphology and gene/protein expression. The tested micro-organisms including Gram-negative bacteria E. coli ATCC 35218 and Pseudomonas aeruginosa ATCC 27853, and Gram-positive bacteria Staphylococcus aureus ATCC 29213 and B. subtilis ATCC 6633, and fungi Candida albicans, Rhizoctonia solani and Aspergillus fumigatus were treated with different concentrations of compounds (1 μM, 10 μM, 100 μM) using Bauer-Kirby disk diffusion method to evaluate the antimicrobial activities.

In data set [2] the test system is human lung adenocarcinoma cell A549. The experiment in a line: MTT cytotoxicity assay, A549. It counts as cell-based. The settings on record: 24 h.
Text: as §1
In general terms: Formazan colour is commonly taken as a measure of viable cells.

Data set [3] deals with human acute lymphoblastic leukemia cells K562. The experiment in a line: cells. It counts as cell-based. The settings on record: 24 h.
Text: as §1

The test system of data set [4] is human breast adenocarcinoma cells MCF7. The experiment in a line: cells. It counts as cell-based. The settings on record: 24 h.
Text: as §1

In data set [5] the test system is human breast adenocarcinoma cells MDA-MB-231. As to the kind of experiment: cells. The settings on record: 24 h. Type of data set: cell-based.
Text: as §1

In data set [6] the test system is human colon cancer cell HCT-116. As to the kind of experiment: cells. The settings on record: 24 h. It counts as cell-based.
Text: as §1

Data set [7] has as its system human gastric cancer cell SGC-7901. The experiment in a line: cells. Type of data set: cell-based. The settings on record: 24 h.
Text: as §1

Data set [8] relates to human hepatoma cell HepG-2. As to the kind of experiment: cells. Type of data set: cell-based. The settings on record: 24 h.
Text: as §1

Data set [9] relates to human lung epithelial normal cell 2B. The experiment in a line: cells. Type of data set: cell-based. The settings on record: 24 h.
Text: as §1

Data set [10] concerns S. brevitalea DSM 7029 wild type. As to the kind of experiment: Growth curve of DSM 7029 wild type with compounds (Bioscreen C). It counts as cell-based, Schlegelella brevitalea DSM 7029. The settings on record: CYMG medium, compound 0.1 μg/μL, OD600 every hour for 42 h, Bioscreen C. How it is done: (§2) The growth curve was tested by Bioscreen C (Labsystems, Finland) as follow. Overnight culture was inoculated into 400 μL fresh CYMG medium in the ratio of 1:100 (the concentration of compounds was 0.1 μg/μL) and shook in normal speed. The OD600 value was gained in every hour for 42 h in total. Biofilm formation was measured at 18 h and 36 h respectively, as reported previously. In brief, the free-floating cells were removed, and the microtitre plate was washed with PBS (pH 7.4) after incubation for 18 h and 36 h. The biofilm was stained by adding 200 µL of crystal violet (0.1%) solution. Crystal violet solution was removed after 15 min and 200 µL of ethanol (95%) was added. The absorbance at OD600 was read using a microplate reader (Infinite M200, Tecan, Männedorf, Switzerland). Meanwhile, free-floating cells were used to test the secretion of pigment. The bacteria were removed and the supernatant was measured at OD600.

Data set [11] has the same test system. As to the kind of experiment: Biofilm formation of DSM 7029 wild type with compounds (crystal violet). Type of data set: cell-based, Schlegelella brevitalea DSM 7029. The method, then: as §2
For data set [12], the system named is tumor lines. The experiment in a line: MTT cytotoxicity assay, statements on the whole panel. It counts as cell-based, human. The settings on record: MTT assay, panel of tumor cell lines.
Text: as §1

Data set [13] has as its system A1 domain of CsA1T1 (GdnA). As to the kind of experiment: Adenylation activity of A1 domain (ATP/PPi exchange, pyrophosphate production assay). It counts as biochemical, Schlegelella brevitalea DSM 7029. The settings on record: for relative activity of A1 domain for the activation of amino acids, Average: CsA1T1 1 μM, 10 mM amino acid, 2.5 mM ATP, pH 7.6, A360, L-Met = 100%, mean of n = 3; for selectivity of A1 domain for amino acids in words: response to reviewers on Supplementary Fig. 6a. The method, then: For pyrophosphate production assays, the reaction system contains 10 mM amino acid substrates, 2.5 mM ATP (Solarbio), 0.2 mM MESG (Medchemexpress), 1 U/mL purine nucleoside phosphorylase (Shanghai yuanye Bio-Technology Co., Ltd), 0.4 U/mL inorganic pyrophosphatase (Sigma), 150 mM hydroxylamine (Sigma) and 1 μM proteins in 100 μL buffer (50 mM Tris, 300 mM NaCl and 5 mM MgCl2, pH 7.6). The value was read at A360 in a SpectraMax M5 plate reader (Molecular Devices, Sunnyvale, California) in 96 well, clear-bottomed plates (Corning). A360 values were converted to pyrophosphate release, by comparing with a standard curve (KH2PO4 from 2 μM to 128 μM) for known quantities of pyrophosphate.

As a reminder, the IC50 is the concentration that inhibits the measured activity by half.

Non-standard residues stand in square brackets, D forms with d. Residues, ends and D or L forms follow the SMILES beside them. *: point of attachment. dMet(O) = CS(=O)CC[C@@H](N)C(=O)O; Lauroyl = CCCCCCCCCCCC(=O)*; Decanoyl = CCCCCCCCCC(=O)*; NH(CH2)4NH2 = NCCCCN*; For = O=C* A value given as a limit tells only on which side of the number the result lay.

`CC(C)[C@H](NC(=O)[C@@H]1CCCN1C(=O)[C@@H](CC(N)=O)NC(=O)[C@H](N)CC[S+](C)[O-])C(=O)N[C@H](Cc1ccccc1)C(=O)N1CCC[C@H]1C(=O)N[C@@H](Cc1c[nH]c2ccccc12)C(=O)N[C@@H](C(=O)N[C@@H](C)C(=O)N[C@H](C)C(=O)N[C@@H](CO)C(=O)N[C@@H](C)C(=O)NCCCCN)C(C)C` (stereo partly drawn) [Compound 2, Glidonin B] (H-[dMet(O)][dN]PV[dF]PW[dV]A[dA]SA-{NH(CH2)4NH2}): the IC50 in data set [1], in [2], in data set [3], in [4], in data set [5] and in [6] was more than 20 µM in each case. Moreover, the IC50 in data set [7], in [8] and in [9] was more than 20 µM throughout. The “effect on growth of DSM 7029 wild type in words” value in data set [10] is “no effect”. In addition, the “effect on biofilm formation of DSM 7029 wild type in words” value in [11] (crystal violet staining) is “less effect on biofilm formation”. Moreover, the “biofilm formation 18 h, Average” value in [11] (relative to wild type treated with H2O = 100%, crystal violet 0.1%, OD600, mean of n = 3) was found to be 92.0189%. The “biofilm formation 36 h” value in data set [11] (relative to wild type treated with H2O = 100%, crystal violet 0.1%, OD600, replicate 1) was determined as 105.006%; in [11] (relative to wild type treated with H2O = 100%, crystal violet 0.1%, OD600, replicate 2) it was 81.9095%; in data set [11] (relative to wild type treated with H2O = 100%, crystal violet 0.1%, OD600, replicate 3) it was 97.572%.

Take `CSCC[C@@H](NC=O)C(=O)N[C@H](CC(N)=O)C(=O)N1CCC[C@H]1C(=O)N[C@H](C(=O)N[C@H](Cc1ccccc1)C(=O)N1CCC[C@H]1C(=O)N[C@@H](Cc1c[nH]c2ccccc12)C(=O)N[C@@H](C(=O)N[C@@H](C)C(=O)N[C@H](C)C(=O)N[C@@H](CO)C(=O)N[C@@H](C)C(=O)NCCCCN)C(C)C)C(C)C` [Compound 4, Glidonin D] (For-[dM][dN]PV[dF]PW[dV]A[dA]SA-{NH(CH2)4NH2}): the IC50 in [1], in data set [2], in data set [3], in data set [4], in data set [5] and in data set [6] was more than 20 µM in each case. The IC50 in [7], in [8] and in [9] was more than 20 µM in each case.

Consider `CCCCCCCCCC(=O)N[C@H](CCSC)C(=O)N[C@H](CC(N)=O)C(=O)N1CCC[C@H]1C(=O)N[C@H](C(=O)N[C@H](Cc1ccccc1)C(=O)N1CCC[C@H]1C(=O)N[C@@H](Cc1c[nH]c2ccccc12)C(=O)N[C@@H](C(=O)N[C@@H](C)C(=O)N[C@H](C)C(=O)N[C@@H](CO)C(=O)N[C@@H](C)C(=O)NCCCCN)C(C)C)C(C)C` [Compound 6, Glidonin F] (Decanoyl-[dM][dN]PV[dF]PW[dV]A[dA]SA-{NH(CH2)4NH2}), for which the IC50 in [2], in [5], in data set [8] and in data set [9] was more than 20 µM each time.

As to `CCCCCCCCCCCC(=O)N[C@H](CC(C)C)C(=O)N[C@H](CC(N)=O)C(=O)N1CCC[C@H]1C(=O)N[C@H](C(=O)N[C@H](Cc1ccccc1)C(=O)N1CCC[C@H]1C(=O)N[C@@H](Cc1c[nH]c2ccccc12)C(=O)N[C@@H](C(=O)N[C@@H](C)C(=O)N[C@H](C)C(=O)N[C@@H](CO)C(=O)N[C@@H](C)C(=O)NCCCCN)C(C)C)C(C)C` [Compound 9, Glidonin I] (Lauroyl-[dL][dN]PV[dF]PW[dV]A[dA]SA-{NH(CH2)4NH2}), the IC50 was 9.65 ± 0.4 µM in data set [1]; 3.26 µM in [2]; more than 20 µM in data set [3]; more than 20 µM in data set [4]; 4.26 µM in data set [5]; more than 20 µM in [6]. Further, the figures for the IC50 in data set [7], in data set [8] and in [9] were more than 20 µM, more than 20 µM and 10.4 ± 0.54 µM, respectively. Besides, the “cytotoxic / antitumor activity in words” value in data set [12] is listed as “broad-spectrum cytotoxicity”.

In the case of `NCC(=O)O` [Gly], the “relative activity of A1 domain for the activation of amino acids, Average” value (shortened to “relative activity of A1 domain”) in [13] is recorded as 3.896%.

Take `C[C@H](N)C(=O)O` [L-Ala]: in data set [13], the “relative activity of A1 domain” value is given as 37.8571% and the “selectivity of A1 domain for amino acids in words” value (from here on “selectivity of A1 domain”) was “broad selectivity”.

Turning to `NC(=O)C[C@H](N)C(=O)O` [L-Asn], the “relative activity of A1 domain” value in data set [13] was 8.604%.

Consider `N[C@@H](CS)C(=O)O` [L-Cys], for which the “relative activity of A1 domain” value in [13] is recorded as 4.302%.

As to `NC(=O)CC[C@H](N)C(=O)O` [L-Gln], in [13], the “relative activity of A1 domain” value was found to be 42.7539% and the “selectivity of A1 domain” value was “broad selectivity”.

Regarding `N[C@@H](CCC(=O)O)C(=O)O` [L-Glu], in data set [13], the “relative activity of A1 domain” value was 43.4238% and the “selectivity of A1 domain” value is recorded as “broad selectivity”.

In the case of `N[C@@H](Cc1c[nH]cn1)C(=O)O` [L-His], the “relative activity of A1 domain” value in data set [13] amounted to 1.516%.

For the compound `CC[C@H](C)[C@H](N)C(=O)O` [L-Ile], in data set [13], the “relative activity of A1 domain” value is 8.11% and the “selectivity of A1 domain” value is reported as “weaker selectivity”.

Take `CC(C)C[C@H](N)C(=O)O` [L-Leu]: the “relative activity of A1 domain” value in [13] is recorded as 48.0078%.

Turning to `NCCCC[C@H](N)C(=O)O` [L-Lys], in data set [13], the “selectivity of A1 domain” value is recorded as “no activity”.

Consider `C[S+]([O-])CC[C@H](N)C(=O)O` (stereo partly drawn) [L-MetO], for which, in [13], the “relative activity of A1 domain” value was found to be 74.5064%.

On to `CSCC[C@H](N)C(=O)O` [L-Met], for which the “relative activity of A1 domain” value in [13] is on record as 100%.

Turning to `N[C@@H](Cc1ccccc1)C(=O)O` [L-Phe], in [13], the “relative activity of A1 domain” value was 16.3434%.

On to `N[C@@H](CO)C(=O)O` [L-Ser], for which the “relative activity of A1 domain” value in [13] worked out at 10.8427%.

Consider `C[C@@H](O)[C@H](N)C(=O)O` [L-Thr], for which the “relative activity of A1 domain” value in data set [13] turned out to be 9.697%.

`N[C@@H](Cc1c[nH]c2ccccc12)C(=O)O` [L-Trp]: the “relative activity of A1 domain” value in data set [13] was determined as 8.022%.

Turning to `CC(C)[C@H](N)C(=O)O` [L-Val], in data set [13], the “relative activity of A1 domain” value was 4.884% and the “selectivity of A1 domain” value is on record as “weaker selectivity”.

Source of the values: publication PMC10587159, “Biosynthesis and engineering of the nonribosomal peptides with a C-terminal putrescine” (Nature Communications, 2023).
